Measurements published in US5374733A, “Sweetening agent derived from L-aspartic or L-glutamic acid” (priority 1989, dated 1994).

Experiment: Sweetening potency: taste comparison by a team of eight experienced people with a sucrose reference solution
Settings: Table 3; weight basis, compared with a 2% aqueous solution of sucrose
Description: The sweetening potency of the compounds described in the Examples was evaluated by a team of eight experienced people. This is done by comparing the taste of the compounds, in aqueous solution at variable concentrations, with a 2%, 5 % or 10 % reference solution of sucrose. The sweetening potency of the test compound compared with sucrose then corresponds to the weight ratio between the compound and sucrose for equal sweetening intensity, i.e. when the sweet tastes of the solution of the test compound and the reference solution of sucrose are considered, by a majority of people, to have the same sweetening intensity.
Summary Table 3 below gives, by way of examples, a list of a few compounds obtained by experimental protocols similar to those described above, which those skilled in the art will easily find, together with their relative sweetening potency (SP), evaluated on a weight basis, compared with a 2% aqueous solution of sucrose. When the groups R1, R2 and R3 are different, the configuration of the asymmetric carbon to which they are bonded (carbon marked with an asterisk) is designated according to the conventional rules of stereochemistry using the R/S system: R, S or, when both configurations coexist in the same compound, RS.
In the case of `CCC(C(=O)N[C@@H](CCC(=O)O)C(=O)Nc1ccc(C#N)cc1)c1ccccc1` (stereo partly drawn) [C2 H5/H/C6 H5/RS/2/CH/CH/CN], the “SP (relative sweetening potency)” value is reported as 2700. For `CCCCC(CC)C(=O)N[C@@H](CCC(=O)O)C(=O)Nc1ccc(C#N)cc1` (stereo partly drawn) [C2 H5/H/CH3 (CH2)3/RS/2/CH/CH/CN], the “SP (relative sweetening potency)” value was 5000. For `N#Cc1ccc(NC(=O)[C@H](CCC(=O)O)NC(=O)C(c2ccccc2)c2ccccc2)cc1` [C6 H5/H/C6 H5/2/CH/CH/CN], the “SP (relative sweetening potency)” value was 250. For `CO[C@](C(=O)N[C@@H](CCC(=O)O)C(=O)Nc1ccc(C#N)cc1)(c1ccccc1)C(F)(F)F` [CF3/CH3 O/C6 H5/S/2/CH/CH/CN], the “SP (relative sweetening potency)” value was 600. With `N#Cc1ccc(NC(=O)[C@H](CCC(=O)O)NC(=O)C2(c3ccccc3)CCCC2)cc1` [CH2 (CH2)2 CH2/C6 H5/2/CH/CH/CN] the “SP (relative sweetening potency)” value was 2000. In the case of `N#Cc1ccc(NC(=O)[C@H](CCC(=O)O)NC(=O)C2(c3ccccc3)CCCC2)cn1` [CH2 (CH2)2 CH2/C6 H5/2/N/CH/CN], the “SP (relative sweetening potency)” value is reported as 3000. For `N#Cc1ccc(NC(=O)[C@H](CC(=O)O)NC(=O)C2(c3ccccc3)CC2)cc1` [CH2 CH2/C6 H5/1/CH/CH/CN], the “SP (relative sweetening potency)” value was 1000. For `N#Cc1ccc(NC(=O)[C@H](CCC(=O)O)NC(=O)C2(c3ccccc3)CC2)cc1` [CH2 CH2/C6 H5/2/CH/CH/CN], the “SP (relative sweetening potency)” value was 2500. With `CO[C@@H](C(=O)N[C@@H](CCC(=O)O)C(=O)Nc1ccc(C#N)nc1)c1ccccc1` [CH3 O/H/C6 H5/R/2/N/CH/CN] the “SP (relative sweetening potency)” value was 11000. For `COC(C(=O)N[C@@H](CCC(=O)O)C(=O)Nc1ccc(C#N)cc1)c1ccccc1` (stereo partly drawn) [CH3 O/H/C6 H5/RS/2/CH/CH/CN], the “SP (relative sweetening potency)” value was 2300. In the case of `CO[C@H](C(=O)N[C@@H](CCC(=O)O)C(=O)Nc1ccc(C#N)nc1)c1ccccc1` [CH3 O/H/C6 H5/S/2/N/CH/CN], the “SP (relative sweetening potency)” value is reported as 3000. For `CCCCC(OC)C(=O)N[C@@H](CCC(=O)O)C(=O)Nc1ccc(C#N)nc1` (stereo partly drawn) [CH3 O/H/CH3 (CH2)3/RS/2/N/CH/CN], the “SP (relative sweetening potency)” value was 2000. With `CC(C)CCC(C)(C)C(=O)N[C@@H](CCC(=O)O)C(=O)Nc1ccc(C#N)cc1` [CH3/CH3/(CH3)2 CH(CH2)2/2/CH/CH/CN] the “SP (relative sweetening potency)” value was 10000. In the case of `C=CCC(C)(C)C(=O)N[C@@H](CCC(=O)O)C(=O)Nc1ccc(C#N)cc1` [CH3/CH3/CH2 CHCH2/2/CH/CH/CN], the “SP (relative sweetening potency)” value is reported as 500. In the case of `CCCCC(C)(C)C(=O)N[C@@H](CCC(=O)O)C(=O)Nc1ccc(C#N)cc1` [CH3/CH3/CH3 (CH2)3/2/CH/CH/CN], the “SP (relative sweetening potency)” value is reported as 11000. For `CCCCC(C)(C)C(=O)N[C@@H](CCC(=O)O)C(=O)Nc1ccc(Cl)nc1` [CH3/CH3/CH3 (CH2)3/2/N/CH/Cl], the “SP (relative sweetening potency)” value was 600. In the case of `CCCCCC(C)(C)C(=O)N[C@@H](CCC(=O)O)C(=O)Nc1ccc(C#N)nc1` [CH3/CH3/CH3 (CH2) 4/2/N/CH/CN], the “SP (relative sweetening potency)” value is reported as 3000. For `CC(OC1C(C)CCCC1C)C(=O)N[C@@H](CCC(=O)O)C(=O)Nc1ccc(C#N)cc1` (stereo partly drawn) [CH3/H/(2,6-diMe)-c-C6 H9 O/RS/2/CH/CH/CN], the “SP (relative sweetening potency)” value was 1000. With `CC(C)CCC(C)C(=O)N[C@@H](CCC(=O)O)C(=O)Nc1ccc(C#N)cc1` (stereo partly drawn) [CH3/H/(CH3)2 CH(CH2)2/RS/2/CH/CH/CN] the “SP (relative sweetening potency)” value was 6000. With `C[C@@H](Oc1ccccc1)C(=O)N[C@@H](CC(=O)O)C(=O)Nc1ccc(C#N)cc1` [CH3/H/C6 H5 O/R/1/CH/CH/CN] the “SP (relative sweetening potency)” value was 18000. With `CC(Oc1ccccc1)C(=O)N[C@@H](CCC(=O)O)C(=O)Nc1ccc(C#N)cc1` (stereo partly drawn) [CH3/H/C6 H5 O/RS/2/CH/CH/CN] the “SP (relative sweetening potency)” value was 4000. For `CC(Oc1ccccc1)C(=O)N[C@@H](CCC(=O)O)C(=O)Nc1ccc(C#N)nc1` (stereo partly drawn) [CH3/H/C6 H5 O/RS/2/N/CH/CN], the “SP (relative sweetening potency)” value was 13000. For `C[C@@H](C(=O)N[C@@H](CCC(=O)O)C(=O)Nc1ccc(C#N)cc1)c1ccccc1` [CH3/H/C6 H5/R/2/CH/CH/CN], the “SP (relative sweetening potency)” value was 1300. With `C[C@@H](C(=O)N[C@@H](CCC(=O)O)C(=O)Nc1ccc(C#N)nc1)c1ccccc1` [CH3/H/C6 H5/R/2/N/CH/CN] the “SP (relative sweetening potency)” value was 2500.
